Assays:
[1] = system: NFκB pathway / CyclinD1; test: NFκB pathway activation and CyclinD1 expression in mammary epithelial cells after MPA in vivo; parameters: species or system mouse; settings: three day MPA treatment, control females
Source text: a, Activation of the NFκB pathway and CyclinD1 expression by MPA. Nulliparous RANK^Δmam and littermate control females were s.c. implanted with slow-release MPA pellets or treated with sham surgery. a, In situ immunostaining to detect phosphorylated (P) IκBα in mammary epithelial cells of RANK^Δmam and littermate control females after 3 d MPA treatment. b, Western blot analysis of CyclinD1 and RANKL in isolated mammary epithelial cells from RANK^Δmam and littermate control females after 3 d MPA treatment. Recombinant, murine sRANKL protein is shown for molecular size comparison. β-actin is shown as a loading control.
The human epithelial breast tumor cell line SKBR3 and primary non-transformed mouse mammary epithelial cells were left untreated or stimulated with recombinant murine RANKL^ref. 9. Adenocarcinomas were isolated from control and mutant mice and total protein lysates prepared. Western blotting was carried out using standard protocols. Briefly, blots were blocked with 5% BSA in 1×TBS 0.1% Tween-20 (TBST) for 1 hour and incubated with primary antibody overnight at 4° C. (diluted in TBST according to the manufactures protocol). […]

[2] = system: mammary epithelial cells; test: γ-irradiation induced mammary epithelial cell apoptosis in vivo (active Caspase 3); parameters: species or system mouse; settings: MPA pellet, 5 Gray
Protocol: a, Western blotting for phosphorylated (P) IKKα, total IKKα, phosphorylated (P) p65 NFκB, total p65 NFκB, phosphorylated (P) IκBα, and total IκBα in isolated primary mouse mammary gland epithelial cells (MECs) in response to RANKL stimulation (1 μg/ml). β-actin is shown as loading control. b, Western blotting for IKKα, IKKβ, IKKγ, phosphorylated (P) p65 NFκB, total p65 NFκB, phosphorylated (P) IκBα, and total IκBα in pooled late stage mammary adenocarconimas (n=4 for each lane) that developed in control, RANK^Δmam and IKKΔ^Δmam females. β-actin is shown as loading control c, Expression of RANK, CyclinD1, and p21 mRNA in late stage mammary adenocacinomas that developed in control, RANK^Δmam, and IKKα^Δmam females. Expression was determined by qRT-PCR. […] Apoptosis was detected by immunostaining for active Caspase 3. f, Apoptotic nuclei of epithelial cells (arrows) are shown for representative mammary gland sections. Magnifications×40. g, Quantification of mammary epithelial apoptosis. A minimum of 5000 nuclei was counted for each mouse. […]
For measurement of cell cycle arrest and apoptosis primary mouse mammary epithelial cells and SKBR3 human breast cancer cells were seeded at a cell-density of 100000 cells/well in a 6-well plate and allowed to grow for 24 hours. […] Cell cycle arrest and numbers of dead cells were determined using propidium iodine staining. […]

CC(=O)O[C@]1(C(C)=O)CC[C@H]2[C@@H]3C[C@H](C)C4=CC(=O)CC[C@]4(C)[C@H]3CC[C@@]21C [MPA, medroxyprogesterone acetate]
CyclinD1 protein expression in mammary epithelial cells [1]: induction of CyclinD1 protein expression
nuclear phosphorylated IκBα in mammary epithelial cells [1]: nuclear accumulation of phosphorylated IκBα
protective effect of MPA on γ-irradiation-induced cell death ([2]; RANKΔmam females): abrogated the protective effects of MPA
γ-irradiation-induced apoptosis of mammary epithelial cells in vivo ([2]; control females): protected from γ-irradiation-induced apoptosis
